Measured values published in patent US12514251B2, “Fused heterocyclic compounds and their use as pest control agents” (priority 2020, dated 2026).

What follows are compounds tested on Plutella xylostella (assay: Plutella xylostella, leaf dip method). Conditions: foliar, cabbage leaf dip, second instar larvae, 72 h after release, dead + moribund vs untreated control, read-out: percent mortality.
Format: in vivo
Procedure: The leaf dip method was used for testing, wherein the required quantity of the compound was weighed and dissolved in a tube containing solvent solution. The tube was put on a vortex at 2000 rpm for 90 min for proper mixing, then diluted with 0.01% Triton-X solution to get the desired test concentration. Cabbage leaves were dipped in the compound solution for 10 seconds, shade dried for 20 min and then transferred into the cells of bioassay trays. A single second instar larva was released into each cell and the tray was covered with a lid. The bio-assay trays were then kept under laboratory conditions at a temperature of 25° C. and a relative humidity of 70%. Observations on dead, moribund and alive larvae were recorded 72 h after the release. Percent mortality was calculated by combining dead and moribund larvae and comparing the result to the one of the untreated control.
With `CCS(=O)(=O)c1cc(-c2cc(F)cc(F)c2)cnc1-c1ncc2nc(C(F)(F)F)n(C)c2n1` [Compound 122, 2-(5-(3,5-difluorophenyl)-3-(ethylsulfonyl)pyridin-2-yl)-9-methyl-8-(trifluoromethyl)-9H-purine] the mortality at 300 ppm was ≥ 70%.
`CCS(=O)(=O)c1cc(-c2ccc(Cl)cc2)cnc1-c1ncc2nc(C(F)(F)F)n(C)c2n1` [Compound 123, 2-(5-(4-chlorophenyl)-3-(ethylsulfonyl)pyridin-2-yl)-9-methyl-8-(trifluoromethyl)-9H-purine] was tested, and the mortality at 300 ppm was ≥ 70%.
With `CCS(=O)(=O)c1cc(-c2ccc(Cl)c(F)c2)cnc1-c1ncc2nc(C(F)(F)F)n(C)c2n1` [Compound 124, 2-(5-(4-chloro-3-fluorophenyl)-3-(ethylsulfonyl)pyridin-2-yl)-9-methyl-8-(trifluoromethyl)-9H-purine] the mortality at 300 ppm was ≥ 70%.
With `CCS(=O)(=O)c1cc(-c2cc(Cl)cc(Cl)c2)cnc1-c1ncc2nc(C(F)(F)F)n(C)c2n1` [Compound 128, 2-(5-(3,5-dichlorophenyl)-3-(ethylsulfonyl)pyridin-2-yl)-9-methyl-8-(trifluoromethyl)-9H-purine] the mortality at 300 ppm was ≥ 70%.
In the case of `CCS(=O)(=O)c1cc(-c2ccc(C(F)(F)F)cc2)cnc1-c1ncc2nc(C(F)(F)F)n(C)c2n1` [Compound 129, 2-(3-(ethylsulfonyl)-5-(4-(trifluoromethyl)phenyl)pyridin-2-yl)-9-methyl-8-(trifluoromethyl)-9H-purine], the mortality at 300 ppm is reported as ≥ 70%.
`CCS(=O)(=O)c1cc(-c2cc(F)cc(Cl)c2)cnc1-c1ncc2nc(C(F)(F)F)n(C)c2n1` [Compound 131, 2-(5-(3-chloro-5-fluorophenyl)-3-(ethylsulfonyl)pyridin-2-yl)-9-methyl-8-(trifluoromethyl)-9H-purine] was tested, and the mortality at 300 ppm was ≥ 70%.
For `CCS(=O)(=O)c1cc(-c2nccs2)cnc1-c1ccn2nc(C(F)(F)F)nc2n1` [Compound 132, 2-(5-(ethylsulfonyl)-6-(2-(trifluoromethyl)-[1,2,4]triazolo[1,5-a]pyrimidin-5-yl)pyridin-3-yl)thiazole], the mortality at 300 ppm was ≥ 70%.
With `CCS(=O)(=O)c1cc(-c2cncnc2)cnc1-c1ccn2nc(C(F)(F)F)nc2n1` [Compound 135, 5-(3-(ethylsulfonyl)-5-(pyrimidin-5-yl)pyridin-2-yl)-2-(trifluoromethyl)-[1,2,4]triazolo[1,5-a]pyrimidine] the mortality at 300 ppm was ≥ 70%.
For `CCS(=O)(=O)c1ccc(-n2ccc(F)n2)nc1-c1ccn2nc(C(F)(F)F)cc2n1` [Compound 140, 5-(3-(ethylsulfonyl)-6-(3-fluoro-1H-pyrazol-1-yl)pyridin-2-yl)-2-(trifluoromethyl)pyrazolo[1,5-a]pyrimidine], the mortality at 300 ppm was ≥ 70%.
`CCS(=O)(=O)c1cc(C2CC2)cnc1-c1ccn2nc(C(F)(F)F)nc2n1` [Compound 142, 5-(5-cyclopropyl-3-(ethylsulfonyl)pyridin-2-yl)-2-(trifluoromethyl)-[1,2,4]triazolo[1,5-a]pyrimidine] was tested, and the mortality at 300 ppm was ≥ 70%.
For `CCS(=O)(=O)c1cc(-c2cccc(OC(F)(F)C(F)F)c2)cnc1-c1ccn2nc(C(F)(F)F)nc2n1` [Compound 144, 5-(3-(ethylsulfonyl)-5-(3-(1,1,2,2-tetrafluoroethoxy)phenyl)pyridin-2-yl)-2-(trifluoromethyl)-[1,2,4]triazolo[1,5-a]pyrimidine], the mortality at 300 ppm was ≥ 70%.
In the case of `CCS(=O)(=O)c1cc(-n2cncn2)cnc1-c1ccn2nc(C(F)(F)F)nc2n1` [Compound 146, 5-(3-(ethylsulfonyl)-5-(1H-1,2,4-triazol-1-yl)pyridin-2-yl)-2-(trifluoromethyl)-[1,2,4]triazolo[1,5-a]pyrimidine], the mortality at 300 ppm is reported as ≥ 70%.
In the case of `CCS(=O)(=O)c1cc(-n2cnc(Cl)n2)cnc1-c1ccn2nc(C(F)(F)F)nc2n1` [Compound 148, 5-(5-(3-chloro-1H-1,2,4-triazol-1-yl)-3-(ethylsulfonyl)pyridin-2-yl)-2-(trifluoromethyl)-[1,2,4]triazolo[1,5-a]pyrimidine], the mortality at 300 ppm is reported as ≥ 70%.
